Assay results published in patent US12655124B2, “Heterocyclic compounds as modulators of stimulator of interferon genes (STING)” (RYVU THERAPEUTICS S.A., priority 2019, dated 2026).

Assays:
[1] = system: CT26 murine colon carcinoma allografts; test: In vivo anti-tumor efficacy, CT26 allograft; parameters: species or system female Balb/C mice; details: once every fifth day on three occasions; for response of CT26 tumors to the treatment: intravenously, all dose levels
Method: In Vivo Anti-Tumor Efficacy The efficacy of Example 4, Example 31 and Example 57 was evaluated in established CT26 murine colon carcinoma allografts in female Balb/C mice. Compounds were formulated in 5% ethanol with 10% Captisol in PBS and administered intravenously, once every fifth day on three occasions. The solution was prepared fresh prior to each administration. […] By the end of the study there was one complete response among animals treated at 10 mg/kg of Example 4. […] By the end of the study, on day 43, there was one complete response recorded in group treated at 20 mg/kg of Example 57.

human STING = human STING (Homo sapiens, UniProt Q86WV6); test: Fluorescence Thermal Shift assay (hSTING FTS binding assay); details: ΔTm, STING 0.1 mg/mL, SyproOrange, 25 to 99° C.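 Further: STING preincubated with compound for 20 min in HEPES NaCl buffer pH 7.5.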
human STING, sequence (Q86WV6 whole entry H232R): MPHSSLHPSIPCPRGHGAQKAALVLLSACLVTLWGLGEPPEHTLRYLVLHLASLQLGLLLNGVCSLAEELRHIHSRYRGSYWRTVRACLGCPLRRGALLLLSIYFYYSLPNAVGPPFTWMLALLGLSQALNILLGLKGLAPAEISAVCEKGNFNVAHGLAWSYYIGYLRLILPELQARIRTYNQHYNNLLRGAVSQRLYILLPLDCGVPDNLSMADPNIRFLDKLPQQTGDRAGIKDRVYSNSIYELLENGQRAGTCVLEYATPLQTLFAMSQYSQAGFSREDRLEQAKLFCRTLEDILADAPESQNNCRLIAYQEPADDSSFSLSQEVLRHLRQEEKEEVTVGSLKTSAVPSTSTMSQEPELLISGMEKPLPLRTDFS
Method: Fluorescence Thermal Shift Assay Compounds of the present invention were tested for binding to human STING in Fluorescence Thermal Shift assay. […] Final STING concentration was 0.1 mg/mL. Thermal unfolding was performed in Real-Time PCR QuantStudio 6 Flex System (Applied Biosystems), from 25 to 99° C., with continuous ramp mode and ramp rate 0.033° C./s. The data were analyzed using Protein Thermal Shift Software (ThermoFisher).

Compound: Cc1ccc(N2CCC[C@H](N(Cc3ccnc(C)c3)Cc3cn(C4CC4)c4cc(N5CC[C@H](N)C(F)(F)C5)c(F)cc4c3=O)C2)cn1.Cl (single isomer, unassigned) [Example 57]
- tumor growth effect compared to the control group ([1]; 5 mg/kg intravenously): minimal tumor growth delay
- tumor growth effect compared to the control group ([1]; 10 mg/kg intravenously): moderately efficacious
- tumor growth effect compared to the control group ([1]; 20 mg/kg intravenously): full efficacious
- complete responses by the end of the study ([1]; 20 mg/kg intravenously, day 43): one
- dose dependence of the tumor response ([1]; 5, 10 and 20 mg/kg intravenously): dose dependent manner
- response of CT26 tumors to the treatment [1]: responded prominently
- hSTING FTS binding assay (ΔT ° C.) (human STING): +++ (ΔTm≥20° C.)

Compound: COc1cc(CN(Cc2cn(C3CC3)c3cc(F)c(F)cc3c2=O)[C@H]2CCCN(c3ccc(N)nc3)C2)ccn1.Cl [Example 4, 3-({[(3S)-1-(6-Aminopyridin-3-yl)piperidin-3-yl][(2-methoxypyridin-4-yl)methyl]amino}methyl)-1-cyclopropyl-6,7-difluoro-1,4-dihydroquinolin-4-one Hydrochloride]
- tumor growth effect compared to the control group ([1]; 7 mg/kg intravenously): efficacious and caused tumor growth delay or significant decrease of the tumor size
- complete responses by the end of the study ([1]; 10 mg/kg intravenously): one
- tumor growth effect compared to the control group ([1]; 10 mg/kg intravenously): efficacious and caused tumor growth delay or significant decrease of the tumor size
- response of CT26 tumors to the treatment [1]: responded prominently
- hSTING FTS binding assay (ΔT ° C.) (human STING): +++ (ΔTm≥20° C.)

Compound: Cc1ccc(N2CCC[C@H](N(Cc3ccnc(C)c3)Cc3cn(C4CC4)c4cc(N5CCC[C@H](O)C5)c(F)cc4c3=O)C2)cn1.Cl [Example 31, 1-cyclopropyl-6-fluoro-7-[(3S)-3-hydroxypiperidin-1-yl]-3-({[(3S)-1-(6-methylpyridin-3-yl)piperidin-3-yl][(2-methylpyridin-4-yl)methyl]amino}methyl)-1,4-dihydroquinolin-4-one Hydrochloride]
- tumor growth effect compared to the control group ([1]; 7 mg/kg intravenously): slight tumor growth delay
- tumor growth effect compared to the control group ([1]; 15 mg/kg intravenously): prominently efficacious
- tumor growth effect compared to the control group ([1]; 30 mg/kg intravenously): prominently efficacious
- complete responses by the end of the study ([1]; 30 mg/kg intravenously, day 43): two
- response of CT26 tumors to the treatment [1]: responded prominently
- hSTING FTS binding assay (ΔT ° C.) (human STING): +++ (ΔTm≥20° C.)
